In patent EP4596574A1, “GLP-1/GCG/GIP TRIPLE-RECEPTOR AGONIST AND USE THEREOF” (Sunshine Lake Pharma Co., Ltd., priority 2022, dated 2024):
Starred links: 1 amine or outer side, 2 acyl side, 3 side chain; linkers in the order of their positions; H or OH if unused. Non-standard residues stand in square brackets, D forms with d. Residues, ends and D or L forms follow the SMILES beside them. Groups on a side chain read outwards from the residue. *: point of attachment. C20 diacid = O=C(O)CCCCCCCCCCCCCCCCCCC(=O)*; C18 diacid = O=C(O)CCCCCCCCCCCCCCCCC(=O)*; αMePhe(2-F) = C[C@](N)(Cc1ccccc1F)C(=O)O; γGlu = O=C(O)[C@H](CCC(=O)[*:2])N[*:1]; AEEA = NCCOCCOCC(=O)O; Aib = CC(C)(N)C(=O)O

Assays:
Type in all cases: cell-based
GLP-1R = target: T1, GLP-1R (Homo sapiens, UniProt P43220); experiment: In vitro cell activity, cAMP production in HEK293 cells expressing GLP-1R; details: HEK293-GLP-1R cells, cAMP; read-out: GLP-1R (EC50)
T1 construct: expressed in transfected cells; host or cells: HEK293 (HEK293-GLP-1R)
T1 sequence (P43220 24-463, species assumed): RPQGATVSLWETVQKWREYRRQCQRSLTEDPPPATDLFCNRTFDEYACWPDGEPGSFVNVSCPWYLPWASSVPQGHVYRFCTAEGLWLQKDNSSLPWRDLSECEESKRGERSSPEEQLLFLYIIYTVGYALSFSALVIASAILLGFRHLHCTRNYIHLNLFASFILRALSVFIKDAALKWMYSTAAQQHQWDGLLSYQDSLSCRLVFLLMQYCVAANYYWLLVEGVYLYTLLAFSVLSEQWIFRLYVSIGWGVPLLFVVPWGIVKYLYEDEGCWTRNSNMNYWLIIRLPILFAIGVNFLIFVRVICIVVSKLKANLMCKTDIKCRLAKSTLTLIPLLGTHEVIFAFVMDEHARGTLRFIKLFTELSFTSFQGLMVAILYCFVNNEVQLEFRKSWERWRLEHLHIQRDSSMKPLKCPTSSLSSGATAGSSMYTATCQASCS
How it was run: (§1)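 cAMP output read as 665/620 nm HTRF ratio after adding cAMP-d2 plus anti-cAMP cryptate and incubating 1 h at room temperature in the dark or overnight at 4 °C. Cells: HEK293 expressing human GLP-1R or GCGR, plated from a 4×10^5 cells/mL suspension. Four-parameter fit gives EC50.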

GCGR = target: T2, GCGR (Homo sapiens, UniProt P47871); experiment: In vitro cell activity, cAMP production in HEK293 cells expressing GCGR; details: HEK293-GCGR cells, cAMP; read-out: GCGR (EC50)
T2 construct: expressed in transfected cells; host or cells: HEK293 (HEK293-GCGR)
T2 sequence (P47871 26-477, species assumed): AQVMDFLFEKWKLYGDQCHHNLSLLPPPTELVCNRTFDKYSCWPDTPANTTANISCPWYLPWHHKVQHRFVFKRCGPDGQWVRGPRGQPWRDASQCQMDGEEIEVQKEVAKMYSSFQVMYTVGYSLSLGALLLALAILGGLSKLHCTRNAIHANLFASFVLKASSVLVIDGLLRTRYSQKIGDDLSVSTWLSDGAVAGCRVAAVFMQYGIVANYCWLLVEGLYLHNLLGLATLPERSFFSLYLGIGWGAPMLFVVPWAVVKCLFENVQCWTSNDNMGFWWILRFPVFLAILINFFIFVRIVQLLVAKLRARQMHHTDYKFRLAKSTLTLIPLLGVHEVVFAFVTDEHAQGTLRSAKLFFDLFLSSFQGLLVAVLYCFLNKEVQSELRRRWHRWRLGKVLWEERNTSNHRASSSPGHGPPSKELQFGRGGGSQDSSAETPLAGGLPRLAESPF
How it was run: as §1

GIPR = target: T3, GIPR (Homo sapiens, UniProt P48546); experiment: In vitro cell activity, cAMP production in HEK293 cells expressing GIPR; details: HEK293-GIPR cells, cAMP; read-out: GIPR (EC50)
T3 construct: expressed in transfected cells; host or cells: HEK293 (HEK293-GIPR)
T3 sequence (P48546 22-466): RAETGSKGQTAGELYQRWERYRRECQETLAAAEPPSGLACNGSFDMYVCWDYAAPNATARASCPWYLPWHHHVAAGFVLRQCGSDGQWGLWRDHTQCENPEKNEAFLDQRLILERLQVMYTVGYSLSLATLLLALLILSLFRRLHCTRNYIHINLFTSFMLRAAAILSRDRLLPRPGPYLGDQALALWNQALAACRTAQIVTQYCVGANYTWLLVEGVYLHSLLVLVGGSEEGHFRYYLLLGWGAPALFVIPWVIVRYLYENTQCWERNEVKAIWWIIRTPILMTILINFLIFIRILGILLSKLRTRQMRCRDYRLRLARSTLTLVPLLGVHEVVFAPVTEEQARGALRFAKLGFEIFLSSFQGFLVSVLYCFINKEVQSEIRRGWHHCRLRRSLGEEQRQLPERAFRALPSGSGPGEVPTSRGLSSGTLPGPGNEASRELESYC
How it was run: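 HEK293 cells expressing human GIPR, thawed and diluted to 4×10^5 cells/mL, are stimulated with test compound. cAMP is measured by HTRF competition between cAMP-d2 and anti-cAMP cryptate. EC50 comes from a four-parameter nonlinear fit of signal ratio against concentration.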

| SMILES | EC50 (GLP-1R) | EC50 (GCGR) | EC50 (GIPR) |
| --- | --- | --- | --- |
| CC[C@H](C)[C@H](NC(=O)[C@H](Cc1ccccc1)NC(=O)[C@H](C)NC(=O)[C@H](CCC(N)=O)NC(=O)[C@H](CCC(N)=O)NC(=O)[C@H](C)NC(=O)[C@H](CCCCNC(=O)COCCOCCNC(=O)CC[C@H](NC(=O)CCCCCCCCCCCCCCCCCCC(=O)O)C(=O)O)NC(=O)[C@H](CCC(=O)O)NC(=O)[C@H](CC(=O)O)NC(=O)[C@H](CC(C)C)NC(=O)[C@H](CC(C)C)NC(=O)[C@@H](NC(=O)[C@H](CO)NC(=O)[C@H](Cc1ccc(O)cc1)NC(=O)[C@H](CC(=O)O)NC(=O)[C@H](CO)NC(=O)[C@@H](NC(=O)[C@](C)(Cc1ccccc1F)NC(=O)[C@@H](NC(=O)CNC(=O)[C@H](CCC(N)=O)NC(=O)C(C)(C)NC(=O)[C@@H](N)Cc1ccc(O)cc1)[C@@H](C)O)[C@@H](C)O)[C@@H](C)CC)C(=O)N[C@@H](CCC(=O)O)C(=O)N[C@@H](Cc1ccc(O)cc1)C(=O)N[C@@H](CC(C)C)C(=O)N[C@@H](CC(C)C)C(=O)N[C@@H](CCC(=O)O)C(=O)NCC(=O)NCC(=O)N1CCC[C@H]1C(=O)N[C@@H](CO)C(=O)N[C@@H](CO)C(=O)NCC(=O)N[C@@H](C)C(=O)N1CCC[C@H]1C(=O)N1CCC[C@H]1C(=O)N1CCC[C@H]1C(=O)N[C@@H](CO)C(=O)O [HEC-PT68] | 0.415 nM | 0.748 nM | 0.199 nM |
| CC[C@H](C)[C@H](NC(=O)[C@H](CO)NC(=O)[C@H](Cc1ccc(O)cc1)NC(=O)[C@H](CC(=O)O)NC(=O)[C@H](CO)NC(=O)[C@@H](NC(=O)[C@](C)(Cc1ccccc1F)NC(=O)[C@@H](NC(=O)CNC(=O)[C@H](CCC(N)=O)NC(=O)C(C)(C)NC(=O)[C@@H](N)Cc1ccc(O)cc1)[C@@H](C)O)[C@@H](C)O)C(=O)N[C@@H](CC(C)C)C(=O)N[C@@H](CC(C)C)C(=O)N[C@@H](CC(=O)O)C(=O)N[C@@H](CCC(=O)O)C(=O)N[C@@H](CCCCNC(=O)COCCOCCNC(=O)CC[C@H](NC(=O)CCCCCCCCCCCCCCCCC(=O)O)C(=O)O)C(=O)N[C@@H](CCCCN)C(=O)N[C@@H](CCC(N)=O)C(=O)NC(C)(C)C(=O)N[C@@H](CCC(=O)O)C(=O)N[C@@H](Cc1ccccc1)C(=O)N[C@H](C(=O)N[C@@H](CCC(=O)O)C(=O)N[C@@H](Cc1c[nH]c2ccccc12)C(=O)N[C@@H](CC(C)C)C(=O)N[C@@H](CC(C)C)C(=O)N[C@@H](C)C(=O)NCC(=O)NCC(=O)N1CCC[C@H]1C(=O)N[C@@H](CO)C(=O)N[C@@H](CO)C(=O)NCC(=O)N[C@@H](C)C(=O)N1CCC[C@H]1C(=O)N1CCC[C@H]1C(=O)N1CCC[C@H]1C(=O)N[C@@H](CO)C(N)=O)[C@@H](C)CC [HEC-PT129] | 0.141 nM | 0.525 nM | 0.0439 nM |
| CC[C@H](C)[C@H](NC(=O)[C@H](Cc1ccccc1)NC(=O)[C@H](C)NC(=O)[C@H](Cc1c[nH]cn1)NC(=O)[C@H](CCC(N)=O)NC(=O)[C@H](C)NC(=O)[C@H](CCCCNC(=O)COCCOCCNC(=O)CC[C@H](NC(=O)CCCCCCCCCCCCCCCCC(=O)O)C(=O)O)NC(=O)[C@H](CCCNC(=N)N)NC(=O)[C@H](CC(=O)O)NC(=O)[C@H](CC(C)C)NC(=O)[C@H](CC(C)C)NC(=O)[C@@H](NC(=O)[C@H](CO)NC(=O)[C@H](Cc1ccc(O)cc1)NC(=O)[C@H](CC(=O)O)NC(=O)[C@H](CO)NC(=O)[C@@H](NC(=O)[C@](C)(Cc1ccccc1F)NC(=O)[C@@H](NC(=O)CNC(=O)[C@H](CCC(N)=O)NC(=O)C(C)(C)NC(=O)[C@@H](N)Cc1c[nH]cn1)[C@@H](C)O)[C@@H](C)O)[C@@H](C)CC)C(=O)N[C@@H](CCC(=O)O)C(=O)N[C@@H](Cc1ccc(O)cc1)C(=O)N[C@@H](CC(C)C)C(=O)N[C@@H](CC(C)C)C(=O)N[C@@H](C)C(=O)NCC(=O)NCC(=O)N1CCC[C@H]1C(=O)N[C@@H](CO)C(=O)N[C@@H](CO)C(=O)NCC(=O)N[C@@H](C)C(=O)N1CCC[C@H]1C(=O)N1CCC[C@H]1C(=O)N1CCC[C@H]1C(=O)N[C@@H](CO)C(=O)O [HEC-PT155] | 0.0555 nM | 0.0581 nM | 0.0509 nM |
| CC[C@H](C)[C@H](NC(=O)[C@H](Cc1ccccc1)NC(=O)[C@H](CC(=O)O)NC(=O)[C@H](CCCNC(=N)N)NC(=O)[C@H](CCC(N)=O)NC(=O)[C@H](C)NC(=O)[C@H](CCCCNC(=O)COCCOCCNC(=O)CC[C@H](NC(=O)CCCCCCCCCCCCCCCCCCC(=O)O)C(=O)O)NC(=O)[C@H](CCC(=O)O)NC(=O)[C@H](CC(=O)O)NC(=O)[C@H](CC(C)C)NC(=O)[C@H](CC(C)C)NC(=O)[C@@H](NC(=O)[C@H](CO)NC(=O)[C@H](Cc1ccc(O)cc1)NC(=O)[C@H](CC(=O)O)NC(=O)[C@H](CO)NC(=O)[C@@H](NC(=O)[C@](C)(Cc1ccccc1F)NC(=O)[C@@H](NC(=O)CNC(=O)[C@H](CCC(N)=O)NC(=O)C(C)(C)NC(=O)[C@@H](N)Cc1ccc(O)cc1)[C@@H](C)O)[C@@H](C)O)[C@@H](C)CC)C(=O)N[C@@H](CCC(=O)O)C(=O)N[C@@H](Cc1c[nH]c2ccccc12)C(=O)N[C@@H](CC(C)C)C(=O)N[C@@H](CC(C)C)C(=O)N[C@@H](CCC(=O)O)C(=O)NCC(=O)NCC(=O)N1CCC[C@H]1C(=O)N[C@@H](CO)C(=O)N[C@@H](CO)C(=O)NCC(=O)N[C@@H](C)C(=O)N1CCC[C@H]1C(=O)N1CCC[C@H]1C(=O)N1CCC[C@H]1C(=O)N[C@@H](CO)C(=O)O [HEC-PT64] | 0.6 nM | 3.57 nM | 0.248 nM |
| CC[C@H](C)[C@H](NC(=O)[C@H](CCC(=O)O)NC(=O)[C@H](CC(=O)O)NC(=O)[C@H](CC(C)C)NC(=O)[C@H](CC(C)C)NC(=O)[C@@H](NC(=O)[C@H](CO)NC(=O)[C@H](Cc1ccc(O)cc1)NC(=O)[C@H](CC(=O)O)NC(=O)[C@H](CO)NC(=O)[C@@H](NC(=O)[C@](C)(Cc1ccccc1F)NC(=O)[C@@H](NC(=O)CNC(=O)[C@H](CCC(N)=O)NC(=O)C(C)(C)NC(=O)[C@@H](N)Cc1ccc(O)cc1)[C@@H](C)O)[C@@H](C)O)[C@@H](C)CC)C(=O)N[C@@H](C)C(=O)N[C@@H](CCC(N)=O)C(=O)N[C@@H](CCCCNC(=O)COCCOCCNC(=O)COCCOCCNC(=O)CC[C@H](NC(=O)CCCCCCCCCCCCCCCCCCC(=O)O)C(=O)O)C(=O)N[C@@H](C)C(=O)N[C@@H](Cc1ccccc1)C(=O)N[C@H](C(=O)N[C@@H](CCC(N)=O)C(=O)N[C@@H](Cc1c[nH]c2ccccc12)C(=O)N[C@@H](CC(C)C)C(=O)N[C@H](C(=O)N[C@@H](C)C(=O)NCC(=O)NCC(=O)N1CCC[C@H]1C(=O)N[C@@H](CO)C(=O)N[C@@H](CO)C(=O)NCC(=O)N[C@@H](C)C(=O)N1CCC[C@H]1C(=O)N1CCC[C@H]1C(=O)N1CCC[C@H]1C(=O)N[C@@H](CO)C(=O)O)[C@@H](C)CC)C(C)C [HEC-PT100] (H-Y[Aib]QGT[αMePhe(2-F)]TSDYSILLDEIAQK([AEEA-AEEA-γGlu-C20 diacid])AFVQWLIAGGPSSGAPPPS-OH) | 0.0978 nM | 9.58 nM | 0.0518 nM |
| CC[C@H](C)[C@H](NC(=O)[C@H](CCCCN)NC(=O)[C@H](CC(=O)O)NC(=O)[C@H](CCCCNC(=O)COCCOCCNC(=O)CC[C@H](NC(=O)CCCCCCCCCCCCCCCCC(=O)O)C(=O)O)NC(=O)[C@H](CC(C)C)NC(=O)[C@@H](NC(=O)[C@H](CO)NC(=O)[C@H](Cc1ccc(O)cc1)NC(=O)[C@H](CC(=O)O)NC(=O)[C@H](CO)NC(=O)[C@@H](NC(=O)[C@](C)(Cc1ccccc1F)NC(=O)[C@@H](NC(=O)CNC(=O)[C@H](CCC(N)=O)NC(=O)C(C)(C)NC(=O)[C@@H](N)Cc1ccc(O)cc1)[C@@H](C)O)[C@@H](C)O)[C@@H](C)CC)C(=O)N[C@@H](C)C(=O)N[C@@H](CCC(N)=O)C(=O)N[C@@H](CCCCN)C(=O)N[C@@H](C)C(=O)N[C@@H](Cc1ccccc1)C(=O)N[C@H](C(=O)N[C@@H](CCC(=O)O)C(=O)N[C@@H](Cc1ccc(O)cc1)C(=O)N[C@@H](CC(C)C)C(=O)N[C@@H](CC(C)C)C(=O)N[C@@H](C)C(=O)NCC(=O)NCC(=O)N1CCC[C@H]1C(=O)N[C@@H](CO)C(=O)N[C@@H](CO)C(=O)NCC(=O)N[C@@H](C)C(=O)N1CCC[C@H]1C(=O)N1CCC[C@H]1C(=O)N1CCC[C@H]1C(=O)N[C@@H](CO)C(N)=O)[C@@H](C)CC [HEC-PT140] (H-Y[Aib]QGT[αMePhe(2-F)]TSDYSILK([AEEA-γGlu-C18 diacid])DKIAQKAFIEYLLAGGPSSGAPPPS-NH2) | 0.152 nM | 0.272 nM | 0.0543 nM |
